Marks after values point to notes of the source that are not given here.
Columns and labels:
[1] = system: STZ-induced diabetic rats; experiment: OGTT in STZ-induced diabetic rats (Example 8); assay type: in vivo, rat; conditions: for Plasma glucose 0 hr: before dosing; for Plasma glucose 0 hr / Plasma glucose 0.5 hr / Plasma glucose 1 hr / Plasma glucose 2 hr / Plasma glucose 3 hr / ΔAUC (0-1) / ΔAUC (0-1) (% of Control): glucose 2 g/kg, mean ± S.E.M.
Description: Study in diabetic rats with glucose. Diabetic rats, induced by intravenous injection of streptozotocin (STZ; 40 mg/kg), were used to determining plasma glucose concentration (PG) 1 hr after oral glucose tolerance test (OGTT). […] Blood was collected via the caudal artery immediately before dosing and 0.5, 1, 2, and 3 hr after dosing. The glucose concentration measurement in plasma used Glucose CII-Test Wako kit (Wako Pure Chemicals Industries, Ltd., Osaka, Japan). The variables used for efficacy assessment were the measurement values of the plasma glucose concentration and the area under the curve for plasma glucose concentration through 1 hr after loading (ΔAUC0-1 hr). The ΔAUC0-1 hr for plasma glucose was calculated based on the trapezoid method using the change of plasma glucose concentrations from pre-value (0 hr).

[2] = system: Diet-induced obese (DIO) marmoset; experiment: Two-week dosing and OGTT in diet-induced obese marmosets; assay type: in vivo
Description: Study on plasma glucose levels in marmosets. Mizagliflozin was evaluated in the Diet-induced obese (DIO) marmoset, a polygenic non-human primate model of obesity. Rimonabant, a canabinoid receptor (CB-1) antagonist that was marketed by Sanofi-Aventis for weight loss in obese patients, was administered at a maximal effective dose of 20 mg/kg twice daily as a positive control. Mizagliflozin was administered orally twice daily to DIO male marmosets (n=8/group) for 2 weeks at BID doses of 3 and 30 mg/kg/day (or only vehicle, aqueous hydroxypropylmethyl-cellulose 0.1%). Effects on body weight and body composition, and serum chemistry parameters were measured and glucose excursions during post-treatment OGTTs were also determined after administration of an oral loading dose of glucose (2.0 g/kg).

[3] = system: STZ-induced diabetic rats; experiment: Oral glucose tolerance test in STZ-induced diabetic rats (Example 4); assay type: in vivo, rat
Description: Study in diabetic rats using oral glucose tolerance test. Efficacy of mizagliflozin was tested in a rat model for diabetes using an oral glucose tolerance test (OGTT). Diabetic model rats were prepared by intravenous administration of STZ to induce diabetes. Seven days after STZ administration, rats were fasted for 16 hours and then given an oral loading dose of 2.0 g/kg of glucose. Mizagliflozin, or water as the vehicle control, was then administered as a single oral dose to groups of male rats (n=8/group) at doses of 0.03, 0.1, 0.3, and 1 mg/kg. Another control group was given vehicle and consisted of normal male Sprague Dawley rats that were not administrated STZ. Voglibose was also administered as a single oral dose to male rats (n=8/group) at dose levels of 0.1, 0.3 and 1 mg/kg. Blood samples were collected just prior to loading with mixed carbohydrate and at 0.5, 1, 2, 3, 4, and 6 hours after loading. Plasma glucose concentrations were determined and ΔAUC0-1 h for plasma glucose was calculated.

[4] = Excretion after oral dosing in non-human primates; assay type: in vivo
Excerpt: Accordingly, the SGLT1 inhibitor compounds of Formula I or Formula II are locally acting in the gut, and have poor systemic exposure. […] Systemic exposure (e.g., Cmax) can be measured by methods well known in the art, including liquid chromatography mass spectrometry.

[5] = molecular target: T1, human SGLT2 (Homo sapiens, UniProt P31639); experiment: Inhibition of radiolabeled α-MG uptake into COS-7 cells transfected with human SGLT2 (Dixon plot); assay type: cell-based; conditions: α-MG 0.3 and 1 mM, read-out: inhibition constant for human SGLT2
T1 construct: expressed in transfected cells; host or cells: COS-7
T1 sequence (P31639 1-672): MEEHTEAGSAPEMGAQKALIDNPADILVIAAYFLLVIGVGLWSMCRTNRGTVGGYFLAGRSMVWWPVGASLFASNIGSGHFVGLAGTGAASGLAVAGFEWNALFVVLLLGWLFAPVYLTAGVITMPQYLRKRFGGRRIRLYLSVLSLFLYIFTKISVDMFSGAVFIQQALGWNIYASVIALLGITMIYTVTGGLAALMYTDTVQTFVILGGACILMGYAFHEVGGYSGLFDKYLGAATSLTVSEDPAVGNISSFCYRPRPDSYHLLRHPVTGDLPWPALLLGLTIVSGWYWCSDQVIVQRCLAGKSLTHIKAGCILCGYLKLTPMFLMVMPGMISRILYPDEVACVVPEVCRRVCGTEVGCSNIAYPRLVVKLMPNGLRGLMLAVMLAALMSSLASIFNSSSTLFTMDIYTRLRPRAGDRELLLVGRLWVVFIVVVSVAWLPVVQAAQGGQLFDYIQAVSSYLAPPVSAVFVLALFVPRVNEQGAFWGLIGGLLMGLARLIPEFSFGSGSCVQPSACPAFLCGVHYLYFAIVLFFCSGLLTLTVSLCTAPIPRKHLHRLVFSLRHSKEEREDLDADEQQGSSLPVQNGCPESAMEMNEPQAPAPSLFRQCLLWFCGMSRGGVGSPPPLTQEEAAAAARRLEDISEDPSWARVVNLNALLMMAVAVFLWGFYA
Description: Selective inhibition study. Inhibition constants (Ki) of mizagliflozin for rat and human SGLT1 and SGLT2 were determined measuring concentration-dependent effects of test compound on uptake of radiolabeled methyl-α-D-glucopyranoside (α-MG) into COS-7 cells transiently transfected with cloned SGLT1 or SGLT2. Mizagliflozin was assessed at concentrations from 1 to 30 μM and 3 to 100 μM for human and rat SGLT2, respectively. It was assessed at concentrations from 30 nM to 1 μM and 10 to 30 nM for human and rat SGLT1, respectively. α-MG test concentrations were 0.3 and 1 mM. Data were analyzed and Ki determined using Dixon plots of initial transport rates. […] Inhibition constants were also determined for human SGLT1 and SGLT2.

With Cc1cc(OCCCNCC(C)(C)C(N)=O)ccc1Cc1c(O[C@@H]2O[C@H](CO)[C@@H](O)[C@H](O)[C@H]2O)n[nH]c1C(C)C [mizagliflozin, 3-(3-{4-[3-(β-D-glucopyranosyloxy)-5-isopropyl-1H-pyrazol-4-ylmethyl-]-3-methylphenoxy}propylamino)-2,2-dimethylpropionamide] the “Plasma glucose 0 hr” value ([1]; 0.03 mg/kg oral) was 128 ± 10 mg/dL, the “Plasma glucose 0.5 hr” value ([1]; 0.03 mg/kg oral) was 356 ± 25 mg/dL and the “Plasma glucose 1 hr” value ([1]; 0.03 mg/kg oral) was 371 ± 33 mg/dL. The “Plasma glucose 2 hr” value ([1]; 0.03 mg/kg oral) was 172 ± 29 mg/dL, the “Plasma glucose 3 hr” value ([1]; 0.03 mg/kg oral) was 91 ± 12 mg/dL and the “ΔAUC (0-1)” value ([1]; 0.03 mg/kg oral) was 174 ± 17 mg·h/dL. For the same molecule, the “ΔAUC (0-1) (% of Control)” value ([1]; 0.03 mg/kg oral) was 90 ± 9 % of Control, the “Plasma glucose 0 hr” value ([1]; 0.1 mg/kg oral) was 120 ± 12 mg/dL and the “Plasma glucose 0.5 hr” value ([1]; 0.1 mg/kg oral) was 262 ± 27^y mg/dL. For the same molecule, the “Plasma glucose 1 hr” value ([1]; 0.1 mg/kg oral) was 305 ± 43 mg/dL, the “Plasma glucose 2 hr” value ([1]; 0.1 mg/kg oral) was 238 ± 53 mg/dL and the “Plasma glucose 3 hr” value ([1]; 0.1 mg/kg oral) was 137 ± 26 mg/dL. The “ΔAUC (0-1)” value ([1]; 0.1 mg/kg oral) was 117 ± 18^x mg · dL^−1 · hr, the “ΔAUC (0-1) (% of Control)” value ([1]; 0.1 mg/kg oral) was 60 ± 9^x % of Control and the “PG elevation after glucose administration” value ([1]; 0.03 and 0.1 mg/kg oral, OGTT 2 g/kg) was “inhibited PG elevation after glucose administration dose dependently”. For the same molecule, the signs of diarrhea ([2]; 2 weeks dosing) was “No signs of diarrhea were observed”, the “effects on body weight, body composition (fat or lean mass) and serum chemistry parameters” value ([2]; 3 and 30 mg/kg, oral twice daily, 2 weeks) was “no significant effects” and the “glucose excursions during post-treatment OGTT” value ([2]; two weeks dosing, glucose 2.0 g/kg) was “blunting of the glucose excursions”. The ED50 ([3]; Rattus norvegicus, read-out: ED50 calculated from mean ΔAUC0-1 h (% of control), glucose 2.0 g/kg, single oral dose) was 0.099 mg/kg, the “ΔAUC0-1 h of plasma glucose versus vehicle control” value ([3]; glucose 2.0 g/kg) was “significantly lowered” and the “excreted in the feces” value [4] was > 82 % of orally administered dose. It also gave a Ki [5] of 8.17 µM.
